The structures appear in SMILES notation. Some results are limits rather than exact numbers.

As to `CCOc1nn(Cc2ccc(OCc3ccc4ccccc4n3)cc2)cc1CCC(=O)O`, the melting point (in general, the temperature of the solid-liquid transition) is 140 to 141 °C.

`Cc1ccc(-c2nccc(C)n2)cc1` came in with a melting point of 80 to 81 °C.

In turn, `COc1ccc(CCNC(=O)N(C)O)c(OC)c1` had a melting point of 83 to 84 °C.

Consider `CN(C(=O)[C@H]1C[C@H](C(=O)O)[C@@H](c2ccccc2F)N1C(=O)CNC(=O)Nc1cccc(CC(=O)O)c1)c1ccccc1` (racemic), for which the melting point was 164 °C.

`Cn1nc(O)cc1C(F)F` returned a melting point of 115 to 119 °C.

Molecule `COc1ccccc1-c1n[nH]c(-c2ccccc2C)n1` displayed a melting point of 160 to 161 °C.

For `COC(=O)c1c(CC#N)ncn1C1CCCCO1` (stereo not drawn), the melting point was 82 to 83 °C.

Regarding `C=Cn1cc(C(=O)O)c(=O)c2cc(F)c(N3CCNCC3)nc21`, the melting point was in the range of 256 to 260 °C.

Molecule `CCCCS(=O)CCCNc1cc2oc(=O)[nH]c2cc1F` (stereo not drawn) came in with a melting point of 116 to 117 °C.

Take `CC(C)(C(=O)Nc1cccc(C(F)(F)F)c1)N1COC(C(F)F)=C(c2ccccc2)C1=O`: the melting point is 58 to 60 °C.

Take `CC(C)Nc1ccc(C2=NNC(=O)Cc3cc4c(cc32)OCO4)cc1`: the melting point lay in the range of 144 to 146 °C.

Take `COc1ccc(N(CC(=O)NCC(=O)O)C(=O)c2ccc(Cl)cc2)cc1`: the melting point is 138 to 140 °C.

In the case of `NC(=O)c1ccc(-c2ccnc(C(=O)N(O)Cc3ccccc3)c2)cc1`, the melting point lay within 155 to 160 °C.

In the case of `CCN1C[C@@H](C(=O)O)N(C(=O)[C@H](C)CSC(=O)c2ccccc2)C1=O`, the melting point fell in the range of 139 to 141 °C.

In the case of `CC(C)(C)c1cccc(C[C@@H](NC(=O)c2cccc3c(Cl)cccc23)[C@@H](O)c2cccc(Cl)c2)c1` (racemic), the melting point was 91 to 93 °C.

For `Cc1cc(N)ccc1N=Nc1ccc([N+](=O)[O-])cc1`, the melting point came to 152 °C.

In turn, `Cc1cc(O)c(S(=O)Cc2ccc(Cl)cc2Cl)c(=O)o1` (stereo not drawn) displayed a melting point of 144 to 146 °C.

Regarding `Cc1cnc(CCCCNc2ncc(Cc3ccc(C)nc3)c(=O)[nH]2)c(Cl)c1`, the melting point is 140 to 142 °C.

Molecule `CCNC(=O)c1ccc(N2CCN(Cc3cc(C)c4c(c3)NC(=O)C(C)O4)CC2)c(C)c1` (stereo not drawn) displayed a melting point of 223 to 230 °C.

`COc1ccc(CCc2ccc(NC(=O)C(=O)c3ccccc3O)cc2)cc1OC` displayed a melting point of 124 to 125 °C.

Consider `O=C(CC(F)=C(F)F)Nc1ccc(S(=O)(=O)O)cc1`, for which the melting point is above 300 °C.

As to `Cc1noc(NS(=O)(=O)c2ccc(NCCc3ccccc3)cc2-c2ccc(CC(C)C)cc2)c1C`, the melting point lay in the range of 68 to 71 °C.

Turning to `Nc1ccc(Oc2ccc3cc(Oc4ccc(N)c(O)c4)ccc3c2)cc1O`, the melting point was in the range of 239 to 241 °C.

Molecule `O=c1[nH]nc(-c2ccc(N3CCCCCC3)c([N+](=O)[O-])c2)c2ccccc12` returned a melting point of 187 to 189 °C.

Consider `FC(F)(F)c1ccc(Oc2ccc(CCNc3ncnc4nccnc34)cc2)nc1`, for which the melting point was in the range of 147 to 150 °C.

`C#CCOc1cc(N)ccc1C` gave a melting point of 75 to 77 °C.

`Cc1ccc2c(c1)CC(=O)c1cc(C(C)C(=O)O)ccc1O2` (stereo not drawn): the melting point lay in the range of 128 to 129 °C.

The molecule `c1cnc(NCc2ccc3c(c2)-c2[nH]nc(-c4ccsc4)c2C3)nc1` came in with a melting point of 259 to 260 °C.

With `COc1cc(C)c(S(=O)(=O)c2cccc(C)c2)cc1OC`, the melting point fell in the range of 135 to 140 °C.

The molecule `COC(=S)NC(=O)c1ccccc1-c1ccc(C)cc1` showed a melting point of 149 to 150 °C.

As for `O=S(=O)(Nc1cc(Cl)c(Oc2nc3ccc(Cl)cc3s2)c(Cl)c1)c1ccc(Cl)cc1Cl`, the melting point is 73 to 75 °C.

On to `CC(N1C(=O)C(=O)N(c2ccc(F)cc2F)C1=S)C(C)(C)C` (stereo not drawn), for which the melting point lay within 155 to 156 °C.

Turning to `Cn1ncc2c1-c1c(Oc3ccc(-c4ccc(F)cc4)nc3)sc(C(N)=O)c1CC2`, the melting point lay in the range of 236 to 237 °C.

On to `CC(C)(C)c1cc(-c2csc(CN3CCSCC3)n2)cc(C(C)(C)C)c1O`, for which the melting point fell in the range of 153 to 155 °C.

As for `COC(=O)N1C(=O)NC(C)=C(C(=O)OC(C)C)C1c1cccc(Cl)c1Cl` (stereo not drawn), the melting point fell in the range of 208 to 210 °C.

In turn, `Fc1cccc(-c2sc(-c3ccccc3)cc2-c2ccccc2)c1` displayed a melting point of 118 to 119 °C.

`O=C1c2ccccc2N(N2CCCCC2)C2=NCCN12` registered a melting point of 229 to 231 °C.

As to `CC1CCC(C(C)C)C(OC(=O)/C=C\C(=O)c2ccccc2)C1` (stereo not drawn), the melting point is 85 to 87 °C.

In turn, `CC(=O)Nc1cccc(S(=O)(=O)c2cc(O)c(O)cc2C)c1` returned a melting point of 220 to 222 °C.

Take `CC(C)NCC(O)COc1cccc(Cl)c1Cl` (stereo not drawn): the melting point fell in the range of 94 to 96 °C.

`O=C(C[C@H]1CCCO1)N[C@H]1CC[C@H](CCN2CCN(c3nccc4c3CCO4)CC2)CC1`: the melting point came to 183 °C.

For the molecule `CC(C)(C)C(=O)COc1nn(CC=C(Cl)Cl)c(-c2ccc(S(C)(=O)=O)cc2)c1-c1ccc(F)cc1`, the melting point is 156 to 158 °C.

Consider `COc1ccc(C(=O)NC[C@@H]2CN3C(=O)C[C@H]3O2)cc1` (racemic), for which the melting point is 143 °C.

With `Nc1n[nH]c(-c2ccccc2)c1CC(=O)O`, the melting point was 214 to 216 °C.

The molecule `c1ccc2c(c1)OCCO2` came in with a melting point of 117 to 118 °C.

As to `O=C(O)Cn1c(=O)c(=O)[nH]c2cc(C(F)(F)F)c(-n3ccc(CNCc4ccccc4)c3)cc21`, the melting point is above 300 °C.

Turning to `COc1ccc(S(=O)(=O)n2ccc3ccnc(-c4ccncc4)c32)cc1`, the melting point fell in the range of 193 to 194 °C.

`COC(=O)Cc1ccc2nc(C(F)(F)F)cc(Cl)c2c1`: the melting point was in the range of 108 to 109 °C.

`COc1ccc2c(c1)cc(C1(O)C=CC(=O)C=C1)n2S(=O)(=O)c1ccccc1` showed a melting point of 126 to 128 °C.

The molecule `COc1cc2c(cc1OC)N(C(N)=O)C(=O)C2` came in with a melting point of 206 to 209 °C.

Molecule `O=C(O)c1cc2cc(OCCNC[C@@H](O)c3csc(C(F)(F)F)n3)ccc2o1` showed a melting point of 155 to 163 °C.

With `Cc1c(C(=O)O)cnn1CC(F)(F)F`, the melting point was in the range of 188 to 190 °C.

As to `CCc1cn(C2OC(CN=[N+]=[N-])C(O)C2F)c(=O)[nH]c1=O` (stereo not drawn), the melting point fell in the range of 185 to 188 °C.

The molecule `CSCC(C)(C)NC(=O)c1c(I)cccc1C(=O)Nc1ccc(C(C)n2ccc(C(F)(F)F)n2)cc1C` (stereo not drawn) returned a melting point of 79 to 86 °C.

On to `CC(C)Cn1c(CO)nc2cnc3ccccc3c21`, for which the melting point lay in the range of 165 to 168 °C.

The molecule `CCSc1nnc(CO)n1Cc1ccc(N)cc1` came in with a melting point of 145 to 147 °C.

Turning to `C=CC1(CO)OC(OC2C(COCc3ccccc3)OC(OC)C(OCc3ccccc3)C2OCc2ccccc2)C(OC(C)=O)C(OC)C1O` (stereo not drawn), the melting point stood at 53 °C.

In turn, `N#Cc1cccc(CN2CCN(c3ccc(N)cc3)CC2)c1` gave a melting point of 79 to 81 °C.

For the molecule `CCCn1ncnc1COc1nn2c(-c3ccc(F)cc3)nncc2c1-c1ccccc1F`, the melting point was 148 °C.

Molecule `C[C@@H](S[C@H]1CO[C@H](c2ccc(C(=O)Nc3nccs3)cc2)OC1)[C@](O)(Cn1cncn1)c1ccc(F)cc1F` showed a melting point of 108 °C.

Consider `O=C(O)Cn1c(Cc2ccccc2)ccc(NS(=O)(=O)CCc2ccccc2)c1=O`, for which the melting point lay in the range of 165 to 167 °C.

`O=C1c2ccc(C(F)(F)F)cc2C(=O)N1c1ccc2ccc(Cl)nc2n1` had a melting point of 265 °C.

On to `Cc1nc2cc(C(F)(F)F)ccc2n1NC(=O)c1ccc(Cl)c(S(N)(=O)=O)c1`, for which the melting point lay in the range of 193 to 195 °C.

Consider `CCOC(=O)/C(=N\OCC(=O)N1CCCCCC1)c1csc(N)n1`, for which the melting point fell in the range of 163 to 164 °C.

With `COc1ccc(CNc2nnc(Cl)c3ccc([N+](=O)[O-])cc23)cc1Cl`, the melting point lay within 217 to 218 °C.

On to `CCN(CC)CCNC(=O)c1ccc2cncc(I)c2n1`, for which the melting point lay within 44 to 46 °C.

`CCOC(=O)c1ccc(-c2cccc(-c3ccc4c(c3)C(C)(C)CCC4(C)C)c2O)cc1` came in with a melting point of 121 °C.

For the molecule `O=C(Nc1c(C(O)(C(F)(F)F)C(F)(F)F)ccc2ccccc12)c1cnc2ccccc2n1`, the melting point was above 240 °C.

`CCCCCCCCCCNC(=O)CCCOCCO` showed a melting point of 48 °C.

The molecule `Nc1nc(N)nc(-c2cnccn2)n1` came in with a melting point above 250 °C.

Molecule `Cn1cc(C#N)n(-c2ccc(Cl)cc2)c1=O` came in with a melting point of 149 to 151 °C.

The molecule `CSc1ccc(C(=O)Cc2ccccc2)cc1Cl` registered a melting point of 101 to 102 °C.

As for `CN1C(=O)CCC2(C)C3CCC4(C)C(OCC(N)=O)CCC4C3CCC12` (stereo not drawn), the melting point lay within 222 to 225 °C.

Molecule `O=C(O)CCCc1ccc(CCN(CC=Cc2ccc(Cl)cc2)S(=O)(=O)c2ccc(Cl)cc2)cc1` returned a melting point of 112 to 113 °C.

Turning to `COc1ccc(-c2ccccc2)c2sc(-c3ncc[nH]3)nc12`, the melting point was 205 to 206 °C.

The molecule `CC(COc1ccc(O)c(C(N)=O)c1)N(Cc1ccccc1)CC(O)COc1ccc(OCc2ccccc2)cc1` (stereo not drawn) yielded a melting point of 149 to 160 °C.

On to `Brc1ccc(CCCCn2ccnc2)cc1`, for which the melting point came to 40 °C.

With `c1ccc(-c2ccc(-c3nc(-c4ccc(-c5ccccc5)cc4)nc(-c4ccc(-c5ccccc5)cc4)n3)cc2)cc1`, the melting point came to 283 °C.

Molecule `CC(C)c1ccc2c(c1)C(Cl)Cc1ccc(F)cc1S2` (stereo not drawn) showed a melting point of 82 to 83 °C.

Consider `Cc1cnc(CS(=O)c2cc3ccccc3[nH]2)cc1N1CCCCC1` (stereo not drawn), for which the melting point amounted to 178 °C.

`NC(=O)c1sc(Nc2ccc(Cl)cc2)c2c1CCc1cnoc1-2` returned a melting point of 224 to 225 °C.

In turn, `CCCCN(CCCC)C(=O)N1CCc2ccc(S(=O)(=O)NC(=O)NC3CCCCC3)cc2CC1` displayed a melting point of 118 to 120 °C.

`Cc1nc(C)c(CN2CCN(C)CC2)c(-c2ccccc2OCc2ccc(Cl)cc2)n1`: the melting point was 110 to 111 °C.

In the case of `CN(C)CCN(C)C(=O)[C@H]1CC[C@H](N(C)S(=O)(=O)c2ccc(C(F)(F)F)cc2)CC1`, the melting point worked out at 83 °C.

`Cc1ccc(S(=O)(=O)c2ccc(O)cc2)c(Br)n1` yielded a melting point of 99 to 102 °C.

Molecule `COc1ccc(S(N)(=O)=O)cc1C(=O)NCC1CCCN1CC1=CCCCC1` (stereo not drawn) yielded a melting point of 167 °C.

`CN(C)CCC(Oc1ccc(N)cc1)c1ccccc1` (stereo not drawn) yielded a melting point of 82 to 84 °C.

With `NS(=O)(=O)OCCCCCOS(N)(=O)=O`, the melting point is 96.5 to 99 °C.

Source of the values: a melting point compilation (Tetko et al.; mined from patent text by program, amines drawn as free bases though some values may be those of a salt).
